According to the supplement of paper PMC10307832:

Tests used:
Experiment in all cases: relative viability (nuclei count vs DMSO), 5 days (fraction); higher = more cells survive
Gemcitabine + Pictilisib = compound: Nc1ccn([C@@H]2O[C@H](CO)[C@@H](O)C2(F)F)c(=O)n1 [Gemcitabine] + CS(=O)(=O)N1CCN(Cc2cc3nc(-c4cccc5[nH]ncc45)nc(N4CCOCC4)c3s2)CC1 [Pictilisib] (partner 1 µM)
In short: (§1)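 Nuclei were stained with Hoechst during a one-step fixation (final 0.05% Triton X-100, 1% formaldehyde, 1 ug/ml Hoechst) carried out 5 days after dosing, then counted on 4× images. The cells, lung cancer lines in 1536-well plates, had been dosed by pin tool the day after seeding with one drug alone or a fixed anchor-drug dose plus five library-drug doses (not always all listed) in √10 steps. Relative viability is the nuclei count in treated wells divided by that in vehicle wells, and each value is the median of duplicate plates.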

[1] = compound: Nc1ccn([C@@H]2O[C@H](CO)[C@@H](O)C2(F)F)c(=O)n1 [Gemcitabine] + CC(=O)c1c(C)c2cnc(Nc3ccc(N4CCNCC4)cn3)nc2n(C2CCCC2)c1=O [Palbociclib] (partner 0.5 µM)
In short: as §1

Gemcitabine + Luminespib = compound: Nc1ccn([C@@H]2O[C@H](CO)[C@@H](O)C2(F)F)c(=O)n1 [Gemcitabine] + CCNC(=O)c1noc(-c2cc(C(C)C)c(O)cc2O)c1-c1ccc(CN2CCOCC2)cc1 [Luminespib] (partner 0.01 µM)
In short: as §1

Gemcitabine + OSI-027 = compound: Nc1ccn([C@@H]2O[C@H](CO)[C@@H](O)C2(F)F)c(=O)n1 [Gemcitabine] + COc1cccc2cc(-c3nc([C@H]4CC[C@H](C(=O)O)CC4)n4ncnc(N)c34)[nH]c12 [OSI-027] (partner 0.5 µM)
In short: as §1

| Cell Line | relative viability (Gemcitabine + Pictilisib; first compound 0.001 µM) | relative viability (Gemcitabine + Pictilisib; first compound 0.003162 µM) | relative viability (Gemcitabine + Pictilisib; first compound 0.01 µM) | relative viability (Gemcitabine + Pictilisib; first compound 0.03162 µM) | relative viability (Gemcitabine + Pictilisib; first compound 0.1 µM) | relative viability ([1]; first compound 0.001 µM) | relative viability ([1]; first compound 0.003162 µM) | relative viability ([1]; first compound 0.01 µM) | relative viability ([1]; first compound 0.03162 µM) | relative viability ([1]; first compound 0.1 µM) | relative viability (Gemcitabine + Luminespib; first compound 0.001 µM) | relative viability (Gemcitabine + Luminespib; first compound 0.003162 µM) | relative viability (Gemcitabine + Luminespib; first compound 0.01 µM) | relative viability (Gemcitabine + Luminespib; first compound 0.03162 µM) | relative viability (Gemcitabine + Luminespib; first compound 0.1 µM) | relative viability (Gemcitabine + OSI-027; first compound 0.001 µM) | relative viability (Gemcitabine + OSI-027; first compound 0.003162 µM) | relative viability (Gemcitabine + OSI-027; first compound 0.01 µM) | relative viability (Gemcitabine + OSI-027; first compound 0.03162 µM) | relative viability (Gemcitabine + OSI-027; first compound 0.1 µM) |
| --- | --- | --- | --- | --- | --- | --- | --- | --- | --- | --- | --- | --- | --- | --- | --- | --- | --- | --- | --- | --- |
| COR-L 105 | 0.43 | 0.377 | 0.364 | 0.27 | 0.269 | 0.398 | 0.4 | 0.366 | 0.347 | 0.326 | 0.886 | 0.793 | 0.571 | 0.275 | 0.188 | 0.763 | 0.72 | 0.311 | 0.295 | 0.226 |
| NCI-H441 | 0.521 | 0.343 | 0.196 | 0.109 | 0.126 | 0.242 | 0.163 | 0.178 | 0.13 | 0.123 | 0.343 | 0.332 | 0.198 | 0.189 | 0.177 | 0.583 | 0.28 | 0.247 | 0.165 | 0.201 |
| NCI-H2126 | 0.474 | 0.485 | 0.479 | 0.349 | 0.278 | 0.323 | 0.367 | 0.312 | 0.29 | 0.281 | 0.975 | 0.828 | 0.773 | 0.414 | 0.257 | 0.733 | 0.596 | 0.609 | 0.447 | 0.279 |
| HCC-44 | 0.58 | 0.568 | 0.593 | 0.392 | 0.234 | 0.934 | 0.908 | 0.938 | 0.717 | 0.447 | 1.07 | 0.979 | 0.813 | 0.261 | 0.226 | 0.562 | 0.352 | 0.357 | 0.178 | 0.155 |
| NCI-H460 | 0.37 | 0.328 | 0.0742 | 0.0745 | 0.0388 | 0.129 | 0.212 | 0.0945 | 0.0273 | 0.0115 | 0.0273 | 0.0507 | 0.0367 | 0.0148 | 0.014 | 0.838 | 0.76 | 0.26 | 0.0217 | 0.0185 |
| SK-LU-1 | 0.6 | 0.537 | 0.213 | 0.172 | 0.192 | 0.386 | 0.312 | 0.283 | 0.184 | 0.221 | 0.175 | 0.197 | 0.188 | 0.18 | 0.169 | 0.352 | 0.208 | 0.146 | 0.165 | 0.143 |
| NCI-H322M | 0.445 | 0.178 | 0.251 | 0.239 | 0.244 | 0.463 | 0.396 | 0.336 | 0.452 | 0.425 | 0.73 | 0.445 | 0.334 | 0.36 | 0.344 | 0.348 | 0.376 | 0.258 | 0.256 | 0.278 |
| EKVX | 0.424 | 0.336 | 0.226 | 0.153 | 0.108 | 0.412 | 0.284 | 0.237 | 0.168 | 0.154 | 1.06 | 0.727 | 0.456 | 0.182 | 0.115 | 0.773 | 0.719 | 0.391 | 0.147 | 0.122 |
